# Source: patent US7435438B1, “Disinfectant and method of use” (Pure BioScience, priority 2003, dated 2008)
# Key:
# [1] = test system: dermal lesions both contaminated and infected with gram negative and gram positive bacteria
# [2] = test system: Proprionibacterium acnes ATCC 6921; conditions: 30 ppm
# [3] = test system: Pseudomonas aeruginosa ATCC 15422
# [4] = test system: Staphylococcus aureus ATCC 6538
# [5] = test system: Salmonella cholerasuis ATCC 10708
# [6] = test system: Listeria monocytogenes ATCC 19111; conditions: 30 ppm
# [7] = test system: Enterococcus facium (VRE) ATCC 700221; conditions: 30 ppm
# [8] = test system: Staphylococcus aureus (MRSA) ATCC 700698; conditions: 30 ppm
# [9] = test system: Trichophyton Mentagrophytes ATCC 9533; conditions: 30 ppm
# [10] = test system: HIV type1, Strain HTLV = IIIB
# [11] = test system: Herpes simplex type I ATCC VR-733, Strain F(1)
# [12] = test system: Rhinovirus R37 ATCC VR-1147, Strain 151-1
# [13] = test system: Influenza A ATCC VR-544, Hong Kong Strain
# [14] = test system: Poliovirus type 2 ATCC VR-1002, Strain Lansing
# [15] = test system: listeria monocytogenes ATCC 11543
# [16] = test system: Enterococcus faecium ATCC 6569
# [17] = test system: Legionella in biofilm and planktonic samples
# [18] = test system: heterotrophic bacteria (HBC) in biofilm and planktonic phases
# total bacteria present = conditions: approximately 5 ppm for 5 seconds, drip dry 10 seconds, rinse in 0.1 ppm for 5 seconds; fruits, vegetables, fish and shrimp
# [19] = test system: pathogenic bacterial populations, biofilms
# [20] = equine, observed repeatedly during the study
substance,measurement,setting,value
silver dihydrogen citrate,efficacy for irrigating deep wounds and abscesses,[1]; equine,very efficacious
same,granulation / fibrosis,[1]; equine,promote healthy granulation without excessive fibrosis
same,healing time,[1]; [20],Decreased healing time
same,scar formation,[1]; [20],reduction in scar formation
same,performance on dermal lesions compared to available disinfectant products on the market,"[1]; equine, wet dressings or spray",superior performance
same,healing and draining of deep wounds closed with drains,[1]; flushed with the disinfectant,rapid healing time and reduced draining
same,uterine flush for bacterial and/or fungal/yeast infection,[1]; preliminary results,very promising
same,KILL TIME,[2],15-seconds
same,KILL TIME,[3],30-seconds
same,effectiveness as hard surface disinfectant with direct food contact,[3],effective
same,KILL TIME,[4],30-seconds
same,effectiveness as hard surface disinfectant with direct food contact,[4],effective
same,KILL TIME,[5],30-seconds
same,effectiveness as hard surface disinfectant with direct food contact,[5],effective
same,KILL TIME,[6],30-seconds
same,KILL TIME,E. coli 0157 ATCC 43888,2-minute
same,effectiveness as hard surface disinfectant with direct food contact,E. coli 0157 ATCC 43888,effective
same,KILL TIME,[7],2-minute
same,KILL TIME,[8],2-minute
same,exposure after which the fungus is killed,[9],10 min
same,KILL TIME,[10],30-second
same,effectiveness as hard surface disinfectant with direct food contact,[10],effective
same,KILL TIME,[11],1-minute
same,effectiveness as hard surface disinfectant with direct food contact,[11],effective
same,KILL TIME,[12],10-minute
same,effectiveness as hard surface disinfectant with direct food contact,[12],effective
same,KILL TIME,[13],10-minute
same,effectiveness as hard surface disinfectant with direct food contact,[13],effective
same,KILL TIME,[14],10-minute
same,effectiveness as hard surface disinfectant with direct food contact,[14],effective
same,effectiveness as hard surface disinfectant with direct food contact,E. coli ATCC 11229,effective
same,effectiveness as hard surface disinfectant with direct food contact,[15],effective
same,effectiveness as hard surface disinfectant with direct food contact,[16],effective
same,result of ASTM E645-97 test,L. pneumophila,passed
same,killing of Legionella (in words),[17],killed Legionella
same,reduction of heterotrophic bacteria,[18],did not significantly reduce
same,total bacteria present eliminated,total bacteria present,99.99%
same,mortality in shrimp raising tanks,[19],decreasing
same,"pathogenic bacterial populations, biofilms",[19]; shrimp raising tanks,significantly reducing
same,effectiveness as hard surface disinfectant with direct food contact,SARS,will be effective
